Measured values taken from PubChem BioAssay (NCI).
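Grown in 96-well plates, cells were treated for 48 hours with each compound at five concentrations. Insufficient inhibition: endpoint recorded as highest concentration tested. The concentration for 50% growth inhibition is given as GI50. TGI marks complete inhibition of growth.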

Experiments:
Experiment in all cases: NCI-60 cell line screen, 48 h
KM12 colon = test system: KM12 colon
NCI/ADR-RES ovarian = test system: NCI/ADR-RES ovarian
RPMI-8226 leukemia = test system: RPMI-8226 leukemia
HOP-92 NSCLC = test system: HOP-92 NSCLC
A549 NSCLC = test system: A549 NSCLC
U251 CNS = test system: U251 CNS
MDA-MB-435 = test system: MDA-MB-435
RXF 393 renal = test system: RXF 393 renal
MCF7 breast = test system: MCF7 breast
HCT-15 colon = test system: HCT-15 colon
TK-10 renal = test system: TK-10 renal
K-562 leukemia = test system: K-562 leukemia
MDA-MB-231 breast = test system: MDA-MB-231 breast
CCRF-CEM leukemia = test system: CCRF-CEM leukemia
HS 578T breast = test system: HS 578T breast
HL-60(TB) leukemia = test system: HL-60(TB) leukemia
SK-MEL-2 melanoma = test system: SK-MEL-2 melanoma
OVCAR-5 ovarian = test system: OVCAR-5 ovarian
UACC-257 melanoma = test system: UACC-257 melanoma
M14 melanoma = test system: M14 melanoma
SF-539 CNS = test system: SF-539 CNS
HOP-62 NSCLC = test system: HOP-62 NSCLC
HCT-116 colon = test system: HCT-116 colon
T-47D breast = test system: T-47D breast
SN12C renal = test system: SN12C renal
OVCAR-4 ovarian = test system: OVCAR-4 ovarian
SW-620 colon = test system: SW-620 colon
NCI-H23 lung = test system: NCI-H23 lung
COLO 205 colon = test system: COLO 205 colon
SK-MEL-28 melanoma = test system: SK-MEL-28 melanoma
UO-31 renal = test system: UO-31 renal
SF-268 CNS = test system: SF-268 CNS
SNB-19 CNS = test system: SNB-19 CNS
OVCAR-3 ovarian = test system: OVCAR-3 ovarian
A498 renal = test system: A498 renal
LOX IMVI melanoma = test system: LOX IMVI melanoma
MOLT-4 leukemia = test system: MOLT-4 leukemia
CAKI-1 renal = test system: CAKI-1 renal
SNB-75 CNS = test system: SNB-75 CNS
BT-549 breast = test system: BT-549 breast
HCC-2998 colon = test system: HCC-2998 colon
EKVX NSCLC = test system: EKVX NSCLC
SR leukemia = test system: SR leukemia
ACHN renal = test system: ACHN renal
HT29 colon = test system: HT29 colon
SK-OV-3 ovarian = test system: SK-OV-3 ovarian
SF-295 CNS = test system: SF-295 CNS
NCI-H226 lung = test system: NCI-H226 lung
UACC-62 melanoma = test system: UACC-62 melanoma
IGROV1 ovarian = test system: IGROV1 ovarian
NCI-H460 lung = test system: NCI-H460 lung
DU-145 prostate = test system: DU-145 prostate
MALME-3M melanoma = test system: MALME-3M melanoma
PC-3 prostate = test system: PC-3 prostate
SK-MEL-5 melanoma = test system: SK-MEL-5 melanoma
NCI-H522 lung = test system: NCI-H522 lung
OVCAR-8 ovarian = test system: OVCAR-8 ovarian

Question: Which GI50 (KM12 colon) does the source give for `COc1ccc2cnc(N)c(C#Cc3cc(C(=O)Nc4ccc(CN5CCN(C)CC5)c(C(F)(F)F)c4)cnc3C)c2c1` here?
Answer: 5 nM

Question: What about the TGI (KM12 colon) of the same compound?
Answer: 9240 nM

Question: And the GI50 (NCI/ADR-RES ovarian)?
Answer: 10300 nM

Question: What about the TGI (NCI/ADR-RES ovarian) of the same compound?
Answer: > 34700 nM

Question: And the GI50 (RPMI-8226 leukemia)?
Answer: 2550 nM

Question: What about the TGI (RPMI-8226 leukemia) of the same compound?
Answer: 23100 nM

Question: And the GI50 (HOP-92 NSCLC)?
Answer: 62.9 nM

Question: And the TGI (HOP-92 NSCLC)?
Answer: 796 nM

Question: What about the GI50 (A549 NSCLC) of the same compound?
Answer: 6590 nM

Question: And the TGI (A549 NSCLC)?
Answer: > 26900 nM

Question: What about the GI50 (U251 CNS) of the same compound?
Answer: 1080 nM

Question: What about the TGI (U251 CNS) of the same compound?
Answer: 2810 nM

Question: What about the GI50 (MDA-MB-435) of the same compound?
Answer: 240 nM

Question: What about the TGI (MDA-MB-435) of the same compound?
Answer: 6990 nM

Question: What about the GI50 (RXF 393 renal) of the same compound?
Answer: 488 nM

Question: What about the TGI (RXF 393 renal) of the same compound?
Answer: 1280 nM

Question: What about the GI50 (MCF7 breast) of the same compound?
Answer: 1430 nM

Question: What about the TGI (MCF7 breast) of the same compound?
Answer: 22200 nM

Question: And the GI50 (HCT-15 colon)?
Answer: 1690 nM

Question: And the TGI (HCT-15 colon)?
Answer: 12900 nM

Question: And the GI50 (TK-10 renal)?
Answer: 3220 nM

Question: What about the TGI (TK-10 renal) of the same compound?
Answer: 12400 nM

Question: What about the GI50 (K-562 leukemia) of the same compound?
Answer: 5 nM

Question: What about the TGI (K-562 leukemia) of the same compound?
Answer: 749 nM

Question: And the GI50 (MDA-MB-231 breast)?
Answer: 158 nM

Question: What about the TGI (MDA-MB-231 breast) of the same compound?
Answer: 3910 nM

Question: And the GI50 (CCRF-CEM leukemia)?
Answer: 1970 nM

Question: What about the TGI (CCRF-CEM leukemia) of the same compound?
Answer: 13100 nM

Question: What about the GI50 (HS 578T breast) of the same compound?
Answer: 269 nM

Question: And the TGI (HS 578T breast)?
Answer: 1500 nM

Question: What about the GI50 (HL-60(TB) leukemia) of the same compound?
Answer: 1070 nM

Question: What about the TGI (HL-60(TB) leukemia) of the same compound?
Answer: > 50000 nM

Question: And the GI50 (SK-MEL-2 melanoma)?
Answer: 3590 nM

Question: What about the TGI (SK-MEL-2 melanoma) of the same compound?
Answer: 14600 nM

Question: And the GI50 (OVCAR-5 ovarian)?
Answer: 640 nM

Question: What about the TGI (OVCAR-5 ovarian) of the same compound?
Answer: 1730 nM

Question: What about the GI50 (UACC-257 melanoma) of the same compound?
Answer: 1200 nM

Question: And the TGI (UACC-257 melanoma)?
Answer: 14400 nM

Question: And the GI50 (M14 melanoma)?
Answer: 124 nM

Question: What about the TGI (M14 melanoma) of the same compound?
Answer: 5350 nM

Question: What about the GI50 (SF-539 CNS) of the same compound?
Answer: 974 nM

Question: What about the TGI (SF-539 CNS) of the same compound?
Answer: 7910 nM

Question: And the GI50 (HOP-62 NSCLC)?
Answer: 1190 nM

Question: What about the TGI (HOP-62 NSCLC) of the same compound?
Answer: > 18800 nM

Question: And the GI50 (HCT-116 colon)?
Answer: 498 nM

Question: What about the TGI (HCT-116 colon) of the same compound?
Answer: 9880 nM

Question: What about the GI50 (T-47D breast) of the same compound?
Answer: > 50000 nM

Question: And the TGI (T-47D breast)?
Answer: > 50000 nM

Question: And the GI50 (SN12C renal)?
Answer: 490 nM

Question: What about the TGI (SN12C renal) of the same compound?
Answer: > 25300 nM

Question: What about the GI50 (OVCAR-4 ovarian) of the same compound?
Answer: 1710 nM

Question: What about the TGI (OVCAR-4 ovarian) of the same compound?
Answer: 14600 nM

Question: What about the GI50 (SW-620 colon) of the same compound?
Answer: 692 nM

Question: And the TGI (SW-620 colon)?
Answer: 6250 nM

Question: What about the GI50 (NCI-H23 lung) of the same compound?
Answer: 1480 nM

Question: What about the TGI (NCI-H23 lung) of the same compound?
Answer: 12500 nM

Question: And the GI50 (COLO 205 colon)?
Answer: 208 nM

Question: What about the TGI (COLO 205 colon) of the same compound?
Answer: > 50000 nM

Question: And the GI50 (SK-MEL-28 melanoma)?
Answer: 372 nM

Question: And the TGI (SK-MEL-28 melanoma)?
Answer: 1290 nM

Question: And the GI50 (UO-31 renal)?
Answer: 412 nM

Question: What about the TGI (UO-31 renal) of the same compound?
Answer: 1220 nM

Question: And the GI50 (SF-268 CNS)?
Answer: 2680 nM

Question: And the TGI (SF-268 CNS)?
Answer: > 29600 nM

Question: And the GI50 (SNB-19 CNS)?
Answer: 3710 nM

Question: And the TGI (SNB-19 CNS)?
Answer: 14700 nM

Question: And the GI50 (OVCAR-3 ovarian)?
Answer: 11400 nM

Question: What about the TGI (OVCAR-3 ovarian) of the same compound?
Answer: > 50000 nM

Question: What about the GI50 (A498 renal) of the same compound?
Answer: 680 nM

Question: What about the TGI (A498 renal) of the same compound?
Answer: 3040 nM

Question: And the GI50 (LOX IMVI melanoma)?
Answer: 153 nM

Question: And the TGI (LOX IMVI melanoma)?
Answer: 8930 nM

Question: What about the GI50 (MOLT-4 leukemia) of the same compound?
Answer: 906 nM

Question: And the TGI (MOLT-4 leukemia)?
Answer: 26800 nM

Question: What about the GI50 (CAKI-1 renal) of the same compound?
Answer: 1560 nM

Question: What about the TGI (CAKI-1 renal) of the same compound?
Answer: 9250 nM

Question: What about the GI50 (SNB-75 CNS) of the same compound?
Answer: 801 nM

Question: And the TGI (SNB-75 CNS)?
Answer: 8900 nM

Question: What about the GI50 (BT-549 breast) of the same compound?
Answer: 4220 nM

Question: What about the TGI (BT-549 breast) of the same compound?
Answer: 16400 nM

Question: What about the GI50 (HCC-2998 colon) of the same compound?
Answer: > 37200 nM

Question: And the TGI (HCC-2998 colon)?
Answer: > 50000 nM

Question: And the GI50 (EKVX NSCLC)?
Answer: 3660 nM

Question: What about the TGI (EKVX NSCLC) of the same compound?
Answer: 19400 nM

Question: What about the GI50 (SR leukemia) of the same compound?
Answer: 707 nM

Question: And the TGI (SR leukemia)?
Answer: 2860 nM

Question: And the GI50 (ACHN renal)?
Answer: 449 nM

Question: And the TGI (ACHN renal)?
Answer: 3540 nM

Question: What about the GI50 (HT29 colon) of the same compound?
Answer: 112 nM

Question: What about the TGI (HT29 colon) of the same compound?
Answer: 6010 nM

Question: And the GI50 (SK-OV-3 ovarian)?
Answer: > 21100 nM

Question: What about the TGI (SK-OV-3 ovarian) of the same compound?
Answer: > 50000 nM

Question: And the GI50 (SF-295 CNS)?
Answer: 9470 nM

Question: And the TGI (SF-295 CNS)?
Answer: > 33700 nM

Question: What about the GI50 (NCI-H226 lung) of the same compound?
Answer: 383 nM

Question: What about the TGI (NCI-H226 lung) of the same compound?
Answer: 2590 nM

Question: And the GI50 (UACC-62 melanoma)?
Answer: 190 nM

Question: What about the TGI (UACC-62 melanoma) of the same compound?
Answer: 4200 nM

Question: What about the GI50 (IGROV1 ovarian) of the same compound?
Answer: 318 nM

Question: And the TGI (IGROV1 ovarian)?
Answer: > 40200 nM

Question: What about the GI50 (NCI-H460 lung) of the same compound?
Answer: 1230 nM

Question: What about the TGI (NCI-H460 lung) of the same compound?
Answer: 4460 nM

Question: What about the GI50 (DU-145 prostate) of the same compound?
Answer: 2430 nM

Question: And the TGI (DU-145 prostate)?
Answer: 10100 nM

Question: What about the GI50 (MALME-3M melanoma) of the same compound?
Answer: 70.8 nM

Question: And the TGI (MALME-3M melanoma)?
Answer: 1830 nM

Question: What about the GI50 (PC-3 prostate) of the same compound?
Answer: 2690 nM

Question: And the TGI (PC-3 prostate)?
Answer: 9170 nM

Question: And the GI50 (SK-MEL-5 melanoma)?
Answer: 1060 nM

Question: What about the TGI (SK-MEL-5 melanoma) of the same compound?
Answer: 7900 nM

Question: And the GI50 (NCI-H522 lung)?
Answer: 7810 nM

Question: And the TGI (NCI-H522 lung)?
Answer: 32900 nM

Question: And the GI50 (OVCAR-8 ovarian)?
Answer: 9330 nM

Question: And the TGI (OVCAR-8 ovarian)?
Answer: > 28900 nM
